From patent US4728650A, “3,4-dihydrobenzopyran derivatives and medicinal uses thereof” (Kuraray Co., Ltd., priority 1985, dated 1988)

Key:
[1] = Hydrochloric acid-ethanol-induced ulcer in rats; format: in vivo, Wistar rats (male)
Method: Male Wistar rats (body weights, 170-210 g) were used in groups of 6 to 8 animals. Indomethacin, 20 mg/kg body weight, was injected subcutaneously to rats which had been deprived of food for 24 hours. After 7 hours, the stomach was excised under ether anesthesia. A 10% aqueous solution of formaldehyde was infused into the stomach until the stomach was inflated and, then, the stomach was immersed in a 10% aqueous solution of formaldehyde for 10 minutes for fixation of the tissue. After fixation, an incision was made along the greater curvature and the length of ulcers occurring in the glandular portion of the stomach was measured. The total length of ulcers occurring in a rat was taken as an ulcer index. Each test compound was orally administered, as suspended in a gum arabic solution in concentration of 5%, to rats 10 minutes before subcutaneous injection of indomethacin. Male Wistar rats (body weights, 160-190 g) were used in groups of 6 to 8 animals. One milliliter of a 60% aqueous solution of ethanol containing 150 mM hydrochloric acid was administered orally to rats which had been deprived of food for 24 hours. After one hour, the stomach was excised under ether anesthesia. In a manner similar to that described in study for indomethacin-induced ulcer, the ulcer index was determined. Each test compound was orally administered, as suspended in a gum arabic solution in concentration of 5%, to rats 1 hour before administration of hydrochloric acid-ethanol.

[2] = Expectorant action: tracheal secretion of fluorescein sodium in rats; format: in vivo, Wistar rats (male); conditions: Table 15; 50 mg/kg oral; control 5.20 ± 0.78
Method: Male Wistar rats (body weights, 280-320 g) were used in groups of 7 animals. Each test compound was orally administered in dose of 50 mg/kg body weight to rats. Immediately after administration, 0.3 ml/100 g (body weight of rat) of a 1% aqueous solution of fluorescein sodium was injected into the caudal vein. One hour after administration of the test compound, pentobarbital sodium 100 mg/kg (body weight of rat) was injected intraperitoneally so that deep anesthesia might cause the rat to die. Then, the trachea was exposed and an incision was made in the trachea. A sonde was inserted thereinto and ligation was made. To the sonde was connected a syringe containing 10 ml of a 5% solution of sodium hydrogen carbonate kept at 37° C. and 4 ml of the solution of sodium hydrogen carbonate was injected into the lung. After 5 minutes, the fluid in the lung was removed. After this procedure of injection and removal was repeated three times, the fluid removed from the lung was filtered and the filtrate was made up with water to make 20 ml. The intensity of fluroescence was determined at the excitation wave length of 491 nm and the fluorescence wave length of 510 nm using a spectrophotometer (HITACHI model 650-10, Hitachi, Ltd.). The amount of fluorescein sodium secreted into the trachea was estimated from the intensity of fluorescence. Each test compound was administered as suspended in a gum arabic solution in concentration of 5%.

[3] = Rattus norvegicus, po, 1 h, Table 7, 25 mg/kg p.o.
[4] = Table 5, 25 mg/kg p.o., control 11.09 ± 1.49
[5] = Table 6, 25 mg/kg p.o., control 9.69 ± 1.68
[6] = Rattus norvegicus, po, 1 h, Table 7, 12.5 mg/kg p.o.
[7] = Rattus norvegicus, po, 1 h, Table 7, 50 mg/kg p.o.
[8] = Table 5, 50 mg/kg p.o., control 11.09 ± 1.49
[9] = Rattus norvegicus, po, 1 h, Table 8, 50 mg/kg p.o.
[10] = Table 8, 50 mg/kg p.o., control 9.69 ± 1.68
[11] = Rattus norvegicus, po, 1 h, Table 12, 25 mg/kg p.o.
[12] = Rattus norvegicus, po, 1 h, Table 12, 50 mg/kg p.o.
[13] = Rattus norvegicus, po, 1 h, Table 12, 100 mg/kg p.o.
[14] = Table 12, 25 mg/kg p.o., control 9.93 ± 0.91
[15] = Table 12, 50 mg/kg p.o., control 9.93 ± 0.91
[16] = Table 12, 100 mg/kg p.o., control 9.93 ± 0.91

CCOc1c(C)c(C)c2c(c1C)CCC(C)(CC(=O)NC(=N)N)O2 (stereo not drawn) [Compound (2), N-(3,4-Dihydro-6-ethoxy-2,5,7,8-tetramethyl-2H-benzopyran-2-yl)acetylguanidine]
inhibition in vivo at 25 mg/kg [1, 3]: 89% | Ulcer index (mean ± S.E.) [1, 4]: 0.50 ± 0.34 mm

CC(C)=CCOc1c(C)c(C)c2c(c1C)CCC(C)(CC(=O)NC(=N)N)O2 (stereo not drawn) [Compound (3), N-(3,4-Dihydro-6-prenyloxy-2,5,7,8-tetramethyl-2H-benzopyran-2-yl)acetylguanidine]
inhibition in vivo at 25 mg/kg [1, 3]: 98.7% | Ulcer index (mean ± S.E.) [1, 4]: 0.14 ± 0.14 mm

COc1c(C)c(C)c2c(c1C)CCC(C)(C(=O)NC(=N)N)O2 (stereo not drawn) [Compound (4), N-(3,4-Dihydro-6-methoxy-2,5,7,8-tetramethyl-2H-benzopyran-2-yl)carbonylguanidine]
inhibition in vivo at 25 mg/kg [1, 3]: 100% | Ulcer index (mean ± S.E.) [1, 5]: 0.00 ± 0.00 mm

COc1c(C)c(C)c2c(c1C)CCC(C)(CCC(=O)NC(=N)N)O2 (stereo not drawn) [Compound (5)]
inhibition in vivo at 25 mg/kg [1, 3]: 100% | Ulcer index (mean ± S.E.) [1, 4]: 0.00 ± 0.00 mm

COc1ccc2c(c1)CCC(C)(CC(=O)NC(=N)N)O2 (stereo not drawn) [Compound (6), N-(3,4-Dihydro-6-methoxy-2-methyl-2H-benzopyran-2-yl)acetylguanidine]
inhibition in vivo at 25 mg/kg [1, 3]: 79.1% | Ulcer index (mean ± S.E.) [1, 5]: 2.03 ± 1.04 mm

COc1ccc2c(c1)OC(C)(CC(=O)NC(=N)N)CC2 (stereo not drawn) [Compound (7), N-(3,4-Dihydro-7-methoxy-2-methyl-2H-benzopyran-2-yl)acetylguanidine]
inhibition in vivo at 12.5 mg/kg [1, 6]: 71.9% | inhibition in vivo at 25 mg/kg [1, 3]: 84.2% | Ulcer index (mean ± S.E.) ([1]; Table 5, 12.5 mg/kg p.o., control 11.09 ± 1.49): 3.12 ± 0.66 mm | Ulcer index (mean ± S.E.) [1, 5]: 1.53 ± 0.66 mm

CC1(CC(=O)NC(=N)N)CCc2cc(Cl)ccc2O1 (stereo not drawn) [Compound (8), N-(3,4-Dihydro-6-chloro-2-methyl-2H-benzopyran-2-yl)acetylguanidine]
inhibition in vivo at 25 mg/kg [1, 3]: 100% | Ulcer index (mean ± S.E.) [1, 5]: 0.00 ± 0.00 mm

CNC(=S)NCCC1(C)CCc2c(C)c(OC)c(C)c(C)c2O1 (stereo not drawn) [Compound (9), N-[2-(3,4-Dihydro-6-methoxy-2,5,7,8-tetramethyl-2H-benzopyran-2-yl)ethyl]-N'-methylthiourea]
inhibition in vivo at 25 mg/kg [1, 3]: 47.3% | inhibition in vivo at 50 mg/kg [1, 7]: 95.4% | Ulcer index (mean ± S.E.) [1, 4]: 5.84 ± 0.75 mm

COc1c(C)c(C)c2c(c1C)CCC(C)(CCNC(=N)N)O2 (stereo not drawn) [Compound (10), N-[2-(3,4-Dihydro-6-methoxy-2,5,7,8-tetramethyl-2H-benzopyran-2-yl)ethyl]guanidine]
inhibition in vivo at 50 mg/kg [1, 7]: 72.6% | Ulcer index (mean ± S.E.) [1, 8]: 3.04 ± 1.33 mm

CNC(=N)NCCC1(C)CCc2c(C)c(OC)c(C)c(C)c2O1 (stereo not drawn) [Compound (11), N-[2-(3,4-Dihydro-6-methoxy-2,5,7,8-tetramethyl-2H-benzopyran-2-yl)ethyl]-N'-methylguanidine]
inhibition in vivo at 50 mg/kg [1, 7]: 98.2% | Ulcer index (mean ± S.E.) [1, 8]: 0.20 ± 0.14 mm

COc1c(C)c(C)c2c(c1C)CCC(C)(CCN1CCNCC1)O2 (stereo not drawn) [Compound (12), 3,4-Dihydro-6-methoxy-2-[2-(piperazin-1-yl)ethyl]-2,5,7,8-tetramethyl-2H-benzopyran]
inhibition in vivo at 25 mg/kg ([1]; Rattus norvegicus, po, 1 h, Table 8, 25 mg/kg p.o.): 98.7% | inhibition in vivo at 50 mg/kg [1, 9]: 100% | Ulcer index (mean ± S.E.) ([1]; Table 8, 25 mg/kg p.o., control 9.69 ± 1.68): 0.13 ± 0.13 mm | Ulcer index (mean ± S.E.) [1, 10]: 0.00 ± 0.00 mm

COc1c(C)c(C)c2c(c1C)CCC(C)(CCN1CCN(CC=C(C)C)CC1)O2 (stereo not drawn) [Compound (13), 3,4-Dihydro-6-methoxy-2-[2-[4-(3-methyl-2-butenyl)piperazin-1-yl]ethyl]-2,5,7,8-tetramethyl-2H-benzopyran]
inhibition in vivo at 50 mg/kg [1, 9]: 100% | Ulcer index (mean ± S.E.) [1, 10]: 0.00 ± 0.00 mm

COc1c(C)c(C)c2c(c1C)CCC(C)(CCN1CCN(CC=C(C)CCC=C(C)C)CC1)O2 (stereo not drawn) [Compound (14), 3,4-Dihydro-6-methoxy-2-[2-[4-(3,7-dimethyl-2,6-octadienyl)piperazin-1-yl]ethyl]-2,5,7,8-tetramethyl-2H-benzopyran]
inhibition in vivo at 50 mg/kg [1, 9]: 100% | Ulcer index (mean ± S.E.) [1, 10]: 0.00 ± 0.00 mm

COc1c(C)c(C)c2c(c1C)CCC(C)(CCN1CCN(CC=C(C)CCC=C(C)CCC=C(C)C)CC1)O2 (stereo not drawn) [Compound (15), 3,4-Dihydro-6-methoxy-2-[2-[4-(3,7,11-trimethyl-2,6,10-dodecatrienyl)piperazin-1-yl]ethyl]-2,5,7,8-tetramethyl-2H-benzopyran]
inhibition in vivo at 50 mg/kg [1, 9]: 100% | Ulcer index (mean ± S.E.) [1, 10]: 0.00 ± 0.00 mm

COc1cc(CN2CCN(CCC3(C)CCc4c(C)c(OC)c(C)c(C)c4O3)CC2)cc(OC)c1OC (stereo not drawn) [Compound (18), 3,4-Dihydro-6-methoxy-2-[2-[4-(3,4,5-trimethoxybenzyl)piperazin-1-yl]ethyl]-2,5,7,8-tetramethyl-2H-benzopyran]
inhibition in vivo at 50 mg/kg ([1]; Rattus norvegicus, po, 1 h, Table 10, 50 mg/kg p.o.): 83.2% | Ulcer index (mean ± S.E.) ([1]; Table 10, 50 mg/kg p.o., control 5.98 ± 1.96): 0.98 ± 0.98 mm

COc1c(C)c(C)c2c(c1C)CCC(C)(CCN1CCN(C(=O)c3ccc(N(C)C)cc3)CC1)O2 (stereo not drawn) [Compound (20), 1-[2-(3,4-Dihydro-6-methoxy-2,5,7,8-tetramethyl-2H-benzopyran-2-yl)ethyl]-4-(4-dimethylaminobenzoyl)piperazine]
Secretory amount (mean ± S.E.) [2]: 8.72 ± 1.45 μg/100 g (body weight of rat)/

COc1c(C)c(C)c2c(c1C)CCC(C)(CCN1CCN(C(=O)c3ccc([N+](=O)[O-])cc3)CC1)O2 (stereo not drawn) [Compound (21), 1-[2-(3,4-Dihydro-6-methoxy-2,5,7,8-tetramethyl-2H-benzopyran-2-yl)ethyl]-4-(4-nitrobenzoyl)piperazine]
Secretory amount (mean ± S.E.) [2]: 5.89 ± 0.40 μg/100 g (body weight of rat)/

COc1c(C)c(C)c2c(c1C)CCC(C)(CCN1CCN(C(=O)c3ccc(Br)cc3)CC1)O2 (stereo not drawn) [Compound (22), 1-[2-(3,4-Dihydro-6-methoxy-2,5,7,8-tetramethyl-2H-benzopyran-2-yl)ethyl]-4-(4-bromobenzoyl)piperazine]
Secretory amount (mean ± S.E.) [2]: 6.26 ± 0.32 μg/100 g (body weight of rat)/

COc1c(C)c(C)c2c(c1C)CCC(C)(CCN1CCN(C(=O)c3ccncc3)CC1)O2 (stereo not drawn) [Compound (23), 1-[2-(3,4-Dihydro-6-methoxy-2,5,7,8-tetramethyl-2H-benzopyran-2-yl)ethyl]-4-(4-pyridylcarbonyl)piperazine]
Secretory amount (mean ± S.E.) [2]: 8.16 ± 1.03 μg/100 g (body weight of rat)/

CC(C)=CCOc1ccc(/C=C/C(=O)c2ccc(OCC=C(C)C)cc2OCC(=O)O)cc1 [Sofalcone, 2'-carboxymethoxy-4,4'-bis(3-methyl-2-butenyloxy)calcon, reference compound]
inhibition in vivo at 25 mg/kg [1, 11]: 25.8% | inhibition in vivo at 25 mg/kg [1, 3]: 25.8% | inhibition in vivo at 50 mg/kg [1, 7]: 38.3% | inhibition in vivo at 50 mg/kg [1, 12]: 38.3% | inhibition in vivo at 100 mg/kg [1, 13]: 39.8% | inhibition in vivo at 300 mg/kg ([1]; Rattus norvegicus, po, 1 h, Table 12, 300 mg/kg p.o.): 100% | Ulcer index (mean ± S.E.) [1, 14]: 7.37 ± 0.54 mm | Ulcer index (mean ± S.E.) [1, 15]: 6.13 ± 0.91 mm | Ulcer index (mean ± S.E.) [1, 16]: 5.98 ± 1.04 mm | Ulcer index (mean ± S.E.) ([1]; Table 12, 300 mg/kg p.o., control 9.93 ± 0.91): 0.00 ± 0.00 mm

CC(=O)CCC=C(C)CC/C=C(\C)CC/C=C(\C)CCC=C(C)C [Teprenone, reference compound]
inhibition in vivo at 25 mg/kg [1, 11]: 78.4% | inhibition in vivo at 12.5 mg/kg [1, 6]: 33.8% | inhibition in vivo at 25 mg/kg [1, 3]: 78.4% | inhibition in vivo at 50 mg/kg [1, 12]: 91.4% | inhibition in vivo at 100 mg/kg [1, 13]: 96.3% | Ulcer index (mean ± S.E.) [1, 14]: 2.15 ± 1.26 mm | Ulcer index (mean ± S.E.) [1, 15]: 0.85 ± 0.61 mm | Ulcer index (mean ± S.E.) [1, 16]: 0.37 ± 0.37 mm
